# Measured values taken from patent publication US7517646B2, “Functional molecule and process for producing the same” (Fujitsu Limited, priority 2002, dated 2009).
# Target: human albumin (Homo sapiens, UniProt P02768)
# Test: affinity column filled with beads bound with human albumin; binding of the selected functional molecule
# Settings: functional molecule selected from the random polymer pool N20-M20-N20 on a human albumin affinity column
# Description: First, an affinity column, which was filled with beads bound with human albumin as the target, was prepared and a solution containing the random polymer pool was passed through this column to leave at a specific condition and, then, the modified oligonucleotide sequence showing the affinity to the target adsorbed to the column (FIG. 3B). Subsequently, remained components other than the remained oligonucleotide sequence were removed by washing sufficiently with a buffer solution and the solution containing human albumin was passed through the column to select and collect the oligonucleotide containing the modified oligonucleotide random sequence (FIG. 3C). The step described above is the selecting step.
# This selected modified oligonucleotide sequence was amplified by PCR followed by cloning to know the base sequence of the DNA. As the result, a portion of the base sequence of the determined modified oligonucleotide was “ATGCTCTAGCCCCT” (SEQ ID NO: 1) (FIG. 3D). The step described above is the determining step.
# Translating this base sequence on the basis of the relation table presented “AU1GC6U4CU3AGC6C3CC5T” resulting in identification of a structure of the functional molecule (FIG. 3D). The step described above is the translating step.
# human albumin, sequence (P02768 25-609): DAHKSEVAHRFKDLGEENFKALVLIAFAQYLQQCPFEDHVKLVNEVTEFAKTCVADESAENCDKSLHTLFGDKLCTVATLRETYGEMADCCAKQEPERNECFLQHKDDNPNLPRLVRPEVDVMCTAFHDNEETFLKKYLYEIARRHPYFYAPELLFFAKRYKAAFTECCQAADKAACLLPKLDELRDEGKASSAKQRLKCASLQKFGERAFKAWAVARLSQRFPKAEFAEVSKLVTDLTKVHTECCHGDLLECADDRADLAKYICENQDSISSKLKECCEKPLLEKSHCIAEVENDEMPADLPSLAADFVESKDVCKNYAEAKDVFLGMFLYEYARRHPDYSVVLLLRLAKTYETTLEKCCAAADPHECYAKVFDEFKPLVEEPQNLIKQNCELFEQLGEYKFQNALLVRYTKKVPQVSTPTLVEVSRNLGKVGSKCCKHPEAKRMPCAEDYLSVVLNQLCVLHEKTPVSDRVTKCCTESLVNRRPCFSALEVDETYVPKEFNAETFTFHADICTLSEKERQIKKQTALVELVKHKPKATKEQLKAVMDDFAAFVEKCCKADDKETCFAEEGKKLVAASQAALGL
substance,measurement,value
"AU1GC6U4CU3AGC6C3CC5T (AUGCUCUAGCCCCT; modified nucleotides, further chemistry not given here) [functional molecule]",binding to human albumin,bound specifically with human albumin
